According to patent US12168673B2 (Mitopower, Inc., priority 2022, dated 2024):

How the values were obtained:
[1] = Human hepatocyte clearance; assay type: in vitro ADME; conditions: human hepatocytes
Summary of the method: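 Cryopreserved human hepatocytes at a 2 million cell working stock mixed 1:1 with 2 μM compound working stock at 37 °C, in duplicate. Samples quenched in acetonitrile with internal standard at 0, 15, 30, 60 and 90 min, then analysed by LC-MS/MS.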

[2] = Caco-2 permeability assay; conditions: human
Text: The endpoint measured is the intestinal permeability expressed as apparent permeability—Papp value. All permeability values are represented as ×10^−6 cm/sec.

[3] = tested on: Huh-7 Cells; assay: Cellular NAD+ levels in Huh-7 cells (LCMS/MS); assay type: cell-based; conditions: 125 μm, four hours of incubation
Protocol: Huh-7 Cells, sourced from NCCS Pune, were cultured in RPMI media containing FBS & Antibiotics. Cells from different flasks (80-90% confluent) were pooled into a 15 mL conical tube and centrifuged for 5 mins at 1200 rpm for 5 mins. The supernatant solution was discarded, and the pellet was washed with 5 mL sterile PBS (without Ca^2+ and Mg^2+). The tube was then centrifuged at 1200 rpm for 5 mins and the supernatant was discarded. The cell pellet was resuspended in 7 mL of RPMI media, and a cell count was done using 10 uL of the cell solution. 1.5 million cells from the cell solution were seeded into 1.5 mL microcentrifuge tubes. […] The tubes were placed in racks and gently swirled to mix the compounds into the media containing the cells. These tubes were then incubated for 4 hours in a 37° C. incubator at 5% CO2. After 4 hours of incubation the cells were spun down at 1000 rpm for 10 mins, the supernatant was discarded carefully, and cells were snap frozen in liquid nitrogen. When the samples were run, the extraction of the cells was on ice, cells were lysed using 20 uL deionized water and then ice cold 80% methanol containing the internal standard—Rac-Tenofovir D was added. The tubes were then vortexed at 2500 rpm for 8 minutes and then centrifuged at […] for 10 minutes. 150 uL of the supernatant was carefully transferred to HPLC vials and was analyzed for NAD^+ on the Abscised 4000 Q Trap LCMS/MS system. A C18, 3.5 μm, 2.1×100 mm, Bridge Column was used in the LC. The mobile phase consisted of 10 mM ammonium acetate with 0.1% acetic acid & 0.1% hexylamine as Solvent-A and 10 mM Ammonium acetate with 0.1% acetic acid and 0.1% hexylamine in 95/5 MeOH/H2O as Solvent-B. The gradient used was 0 mins-0.0% B, 0.5 mins-100% B, 1.5 mins-100% B, 3.0 mins-100% B, 3.1 mins-0.0% B, 7.0-STOP. The column flow rate was 0.5 mL/min. The sample injection volume was […].

[4] = Stability in solutions (pH range, simulated gastric fluid, simulated intestinal fluid); assay type: physicochemical
Protocol: 1 mg/ml solutions of compound 100 were prepared in each buffer, diluted to 0.1 mg/ml in methanol at each time point and analyzed as follows: Gemini C-18, 250×4.6 mm, 5 im, Mobile Phase: Methanol Isocratic Flow Rate: 0.4 mL/min.

- half-life at 1 μM [1]: 45.7 min
- hepatocyte CLint at 1 μM [1]: 15.2 µL/min/1e6 cells
- Papp A→B [2]: 0.9 ×10⁻⁶ cm/s
- Papp B→A [2]: 0.8 ×10⁻⁶ cm/s
- efflux ratio [2]: 1
- recovery ([2]; Caco-2, % Recovery A to B): 94.9%
- recovery ([2]; Caco-2, % Recovery B to A): 90.7%
- % remaining ([4]; SGF (simulated gastric fluid), 0 h): 95.54%
- % remaining ([4]; SGF (simulated gastric fluid), 1 week): 91.04%
- % remaining ([4]; SGF (simulated gastric fluid), 1 h): 94.73%
- % remaining ([4]; SGF (simulated gastric fluid), 2 h): 93.68%
- % remaining ([4]; SGF (simulated gastric fluid), 4 h): 93.65%
- % remaining ([4]; SGF (simulated gastric fluid), 8 h): 93.69%
- % remaining ([4]; SGF (simulated gastric fluid), 24 h): 93.61%
- % remaining ([4]; SGF (simulated gastric fluid), 48 h): 93.58%
- % remaining ([4]; SIF (simulated intestinal fluid), 0 h): 96.45%
- % remaining ([4]; SIF (simulated intestinal fluid), 1 week): 84.49%
- % remaining ([4]; SIF (simulated intestinal fluid), 1 h): 96.01%
- % remaining ([4]; SIF (simulated intestinal fluid), 2 h): 96.02%
- % remaining ([4]; SIF (simulated intestinal fluid), 4 h): 95.96%
- % remaining ([4]; SIF (simulated intestinal fluid), 8 h): 95.77%
- % remaining ([4]; SIF (simulated intestinal fluid), 24 h): 94.28%
- % remaining ([4]; SIF (simulated intestinal fluid), 48 h): 93.75%
- % remaining ([4]; pH 1, 0 h): 95.73%
- % remaining ([4]; pH 1, 1 week): 95.56%
- % remaining ([4]; pH 1, 1 h): 95.69%
- % remaining ([4]; pH 1, 2 h): 95.64%
- % remaining ([4]; pH 1, 4 h): 95.61%
- % remaining ([4]; pH 1, 8 h): 95.64%
- % remaining ([4]; pH 1, 24 h): 95.61%
- % remaining ([4]; pH 1, 48 h): 95.64%
- % remaining ([4]; pH 2, 0 h): 95.67%
- % remaining ([4]; pH 2, 1 week): 95.39%
- % remaining ([4]; pH 2, 1 h): 95.65%
- % remaining ([4]; pH 2, 2 h): 95.66%
- % remaining ([4]; pH 2, 4 h): 95.64%
- % remaining ([4]; pH 2, 8 h): 95.67%
- % remaining ([4]; pH 2, 24 h): 95.56%
- % remaining ([4]; pH 2, 48 h): 95.54%
- % remaining ([4]; pH 4, 0 h): 95.37%
- % remaining ([4]; pH 4, 1 week): 94.76%
- % remaining ([4]; pH 4, 1 h): 95.32%
- % remaining ([4]; pH 4, 2 h): 95.27%
- % remaining ([4]; pH 4, 4 h): 95.25%
- % remaining ([4]; pH 4, 8 h): 95.26%
- % remaining ([4]; pH 4, 24 h): 95.26%
- % remaining ([4]; pH 4, 48 h): 95.05%
- % remaining ([4]; pH 6, 0 h): 96.31%
- % remaining ([4]; pH 6, 1 week): 94.47%
- % remaining ([4]; pH 6, 1 h): 96.32%
- % remaining ([4]; pH 6, 2 h): 96.26%
- % remaining ([4]; pH 6, 4 h): 96.27%
- % remaining ([4]; pH 6, 8 h): 96.25%
- % remaining ([4]; pH 6, 24 h): 95.73%
- % remaining ([4]; pH 6, 48 h): 95.66%
- % remaining ([4]; pH 7.4, 0 h): 95.8%
- % remaining ([4]; pH 7.4, 1 week): 61.5%
- % remaining ([4]; pH 7.4, 1 h): 95.7%
- % remaining ([4]; pH 7.4, 2 h): 94.95%
- % remaining ([4]; pH 7.4, 4 h): 94.34%
- % remaining ([4]; pH 7.4, 8 h): 93.43%
- % remaining ([4]; pH 7.4, 24 h): 90.13%
- % remaining ([4]; pH 7.4, 48 h): 83.6%
- % remaining ([4]; pH 9, 0 h): 94.05%
- % remaining ([4]; pH 9, 1 week): 0%
- % remaining ([4]; pH 9, 1 h): 74.72%
- % remaining ([4]; pH 9, 2 h): 56.28%
- % remaining ([4]; pH 9, 4 h): 49.14%
- % remaining ([4]; pH 9, 8 h): 23.34%
- % remaining ([4]; pH 9, 24 h): 14.94%
- % remaining ([4]; pH 9, 48 h): 0.63%
SMILES: O=C(OC[C@H]1OC(O)[C@H](O)[C@@H]1O)c1ccccn1 (stereo partly drawn) [Compound 102, (3,4,5-trihydroxytetrahydrofuran-2-yl) methyl picolinate]
- NAD+ level increase compared to untreated cells [3]: showed an increase
